Article PMC10714399, “Open Source Antibiotics: Simple Diarylimidazoles Are Potent against Methicillin-Resistant Staphylococcus aureus” (ACS Infectious Diseases, 2023)

Target: T1, kinases of HEK293 cell lysate (TGFBR1) (Homo sapiens, UniProt P36897)
T1 construct: endogenous in cells; host or cells: HEK293 cell lysate
Test: MIB-MS kinase competition assay in HEK293 cell lysate
Format: binding
Conditions: 1 μM
Protocol: To understand the mammalian toxicity of these diarylimidazole derivatives and to aid in future compound design, we experimentally investigated the potential series’ mechanism of action (MoA). […] This affinity composition assay has proven to be a useful approach to validate kinase inhibitor selectivity. […] Whether the inhibition of TGF-β1 contributes to the cytotoxicity observed remains to be determined.
Following a brief incubation with these compounds, lysates were passed over MIBs (see Supporting Information - Biology), and the captured kinases were identified and quantified by mass spectrometry. Displaced kinases are shown to the left of the center line at the designated doses.
Differential abundance (increase or decrease in MIB binding) was determined for kinases identified. The mass spectrometry proteomics data have been deposited to the ProteomeXchange Consortium via the PRIDE[43] partner repository with the dataset identifier PXD040208.
EphB2 TRKB FGFR1 FGFR4 EphB2 TRKB FGFR1 FGFR4
EphA5 EphB1 ROR2 FLT1 FmS/CSFR EphA5 EphB1 ROR2 FLT1 FmS/CSFR
MUSK ROR1Ret Kit MUSK ROR1Ret Kit
EphB3 DDR2 Mer EphB3 DDR2 Mer
EphA3EphA4 DDR1 Axl Tyro/SkyFLT4 PDGFRα EphA3EphA4 DDR1 AxlTyro/SkyFLT4 PDGFRα
IRR FLT3PDGFRβ IRR FLT3PDGFRβ
EphA6 IGF1R HER2 EphA6 IGF1R HER2
Yes InSR Met EGFR Yes InSR Met EGFR
Branch Color Src EphB4 Ron MLK3 Branch Color Src EphB4 Ron MLK3
Lyn EphA7 ALK TIE2 Lyn EphA7 ALK TIE2 […]

T1 sequence (P36897 34-503): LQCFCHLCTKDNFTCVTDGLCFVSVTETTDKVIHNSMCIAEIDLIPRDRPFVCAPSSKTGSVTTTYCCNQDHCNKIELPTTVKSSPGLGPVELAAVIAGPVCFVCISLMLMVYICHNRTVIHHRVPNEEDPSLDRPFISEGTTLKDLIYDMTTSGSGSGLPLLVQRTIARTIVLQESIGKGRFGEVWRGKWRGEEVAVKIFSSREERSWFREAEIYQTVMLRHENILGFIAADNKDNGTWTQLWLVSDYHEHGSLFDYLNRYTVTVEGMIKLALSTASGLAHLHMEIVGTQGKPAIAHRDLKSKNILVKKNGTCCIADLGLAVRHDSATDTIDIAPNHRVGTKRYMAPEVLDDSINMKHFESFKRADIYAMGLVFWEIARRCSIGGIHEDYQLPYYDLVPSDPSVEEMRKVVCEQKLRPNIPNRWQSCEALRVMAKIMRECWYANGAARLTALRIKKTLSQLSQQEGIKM

competition of kinases (TGFBR1) off MIBs: selectively competed off MIBs
SMILES: c1ccc(-c2nc3n(c2-c2ccc4sccc4c2)CCC3)nc1 [compound 822]
